From patent US20250234824A1, “MARKERS ASSOCIATED WITH S[…]” (Syngenta Crop Protection AG, priority 2022, published 2025)

Tested on: maize haploids
Experiment: Colchicine doubling treatment of BC3 haploids, pollen and kernel phenotypes in the field
Format: in vivo
Details: for Average Number of Days of Pollen per Plant / Average Number of Kernels per Plant / Percent of Plants with Ears >5 kernels: colchicine-treated haploids
Source text: Genotyping was used to identify heterozygotes at SCD-QTL1, and those materials were then crossed by a haploid inducer, embryos isolated from the immature ears, and haploids regenerated for transplant into the field. Immediately after isolation, embryos from each of the 17 BC3 populations were split into 2 treatment groups. […] All lines were planted across three replications of the trial over the course of approximately 6 months, and the data was pooled for analysis.

[1] = BC3 recurrent parent Line 1, SCD Allele
[2] = BC3 recurrent parent Line 1, Unfavorable Allele
[3] = BC3 recurrent parent Line 2, SCD Allele
[4] = BC3 recurrent parent Line 2, Unfavorable Allele
[5] = BC3 recurrent parent Line 3, SCD Allele
[6] = BC3 recurrent parent Line 3, Unfavorable Allele
[7] = BC3 recurrent parent Line 4, SCD Allele
[8] = BC3 recurrent parent Line 4, Unfavorable Allele
[9] = BC3 recurrent parent Line 5, SCD Allele
[10] = BC3 recurrent parent Line 5, Unfavorable Allele
[11] = BC3 recurrent parent Line 6, SCD Allele
[12] = BC3 recurrent parent Line 6, Unfavorable Allele
[13] = BC3 recurrent parent Line 7, SCD Allele
[14] = BC3 recurrent parent Line 7, Unfavorable Allele
[15] = BC3 recurrent parent Line 8, SCD Allele
[16] = BC3 recurrent parent Line 8, Unfavorable Allele
[17] = BC3 recurrent parent Line 9, SCD Allele
[18] = BC3 recurrent parent Line 9, Unfavorable Allele
[19] = BC3 recurrent parent Line 10, SCD Allele
[20] = BC3 recurrent parent Line 10, Unfavorable Allele
[21] = BC3 recurrent parent Line 11, SCD Allele
[22] = BC3 recurrent parent Line 11, Unfavorable Allele
[23] = BC3 recurrent parent Line 12, SCD Allele
[24] = BC3 recurrent parent Line 12, Unfavorable Allele
[25] = BC3 recurrent parent Line 13, SCD Allele
[26] = BC3 recurrent parent Line 13, Unfavorable Allele
[27] = BC3 recurrent parent Line 14, SCD Allele
[28] = BC3 recurrent parent Line 14, Unfavorable Allele
[29] = BC3 recurrent parent Line 15, SCD Allele
[30] = BC3 recurrent parent Line 15, Unfavorable Allele
[31] = BC3 recurrent parent Line 16, SCD Allele
[32] = BC3 recurrent parent Line 16, Unfavorable Allele
[33] = BC3 recurrent parent Line 17, SCD Allele
[34] = BC3 recurrent parent Line 17, Unfavorable Allele

## COc1cc2c(c(OC)c1OC)-c1ccc(OC)c(=O)cc1[C@@H](NC(C)=O)CC2 [Colchicine, colchicine]
[1]
  Average Number of Days of Pollen per Plant: 3.1 days
  Average Number of Kernels per Plant: 23.8 kernels
  Percent of Plants with Ears >5 kernels: 53.9%
[2]
  Average Number of Days of Pollen per Plant: 2.4 days
  Average Number of Kernels per Plant: 13.5 kernels
  Percent of Plants with Ears >5 kernels: 26.6%
[3]
  Average Number of Days of Pollen per Plant: 1.72 days
  Average Number of Kernels per Plant: 5 kernels
  Percent of Plants with Ears >5 kernels: 12.0%
[4]
  Average Number of Days of Pollen per Plant: 2.35 days
  Average Number of Kernels per Plant: 9.62 kernels
  Percent of Plants with Ears >5 kernels: 13.5%
[5]
  Average Number of Days of Pollen per Plant: 1.76 days
  Average Number of Kernels per Plant: 7.62 kernels
  Percent of Plants with Ears >5 kernels: 6.9%
[6]
  Average Number of Days of Pollen per Plant: 1.45 days
  Average Number of Kernels per Plant: 9.03 kernels
  Percent of Plants with Ears >5 kernels: 9.1%
[7]
  Average Number of Days of Pollen per Plant: 0.04 days
  Average Number of Kernels per Plant: 0 kernels
  Percent of Plants with Ears >5 kernels: 0.0%
[8]
  Average Number of Days of Pollen per Plant: 0.57 days
  Average Number of Kernels per Plant: 7.1 kernels
  Percent of Plants with Ears >5 kernels: 13.2%
[9]
  Average Number of Days of Pollen per Plant: 2.34 days
  Average Number of Kernels per Plant: 2.31 kernels
  Percent of Plants with Ears >5 kernels: 3.1%
[10]
  Average Number of Days of Pollen per Plant: 2.19 days
  Average Number of Kernels per Plant: 4.88 kernels
  Percent of Plants with Ears >5 kernels: 7.6%
[11]
  Average Number of Days of Pollen per Plant: 1.675 days
  Average Number of Kernels per Plant: 11.23 kernels
  Percent of Plants with Ears >5 kernels: 25.0%
[12]
  Average Number of Days of Pollen per Plant: 2.01 days
  Average Number of Kernels per Plant: 19.09 kernels
  Percent of Plants with Ears >5 kernels: 27.2%
[13]
  Average Number of Days of Pollen per Plant: 1.58 days
  Average Number of Kernels per Plant: 53.5 kernels
  Percent of Plants with Ears >5 kernels: 37.9%
[14]
  Average Number of Days of Pollen per Plant: 1.298 days
  Average Number of Kernels per Plant: 54.18 kernels
  Percent of Plants with Ears >5 kernels: 29.9%
[15]
  Average Number of Days of Pollen per Plant: 1.72 days
  Average Number of Kernels per Plant: 37.34 kernels
  Percent of Plants with Ears >5 kernels: 31.1%
[16]
  Average Number of Days of Pollen per Plant: 1.466 days
  Average Number of Kernels per Plant: 26.17 kernels
[17]
  Average Number of Days of Pollen per Plant: 2.58 days
  Average Number of Kernels per Plant: 27.9 kernels
[18]
  Average Number of Days of Pollen per Plant: 2.51 days
  Average Number of Kernels per Plant: 24.067 kernels
  Percent of Plants with Ears >5 kernels: 29.3%
[19]
  Average Number of Days of Pollen per Plant: 1.12 days
  Average Number of Kernels per Plant: 23.17 kernels
[20]
  Average Number of Days of Pollen per Plant: 1.005 days
  Average Number of Kernels per Plant: 13.75 kernels
  Percent of Plants with Ears >5 kernels: 26.4%
[21]
  Average Number of Days of Pollen per Plant: 1.09 days
  Average Number of Kernels per Plant: 4.97 kernels
  Percent of Plants with Ears >5 kernels: 8.7%
[22]
  Average Number of Days of Pollen per Plant: 1.2 days
  Average Number of Kernels per Plant: 18.11 kernels
  Percent of Plants with Ears >5 kernels: 17.5%
[23]
  Average Number of Days of Pollen per Plant: 1.25 days
  Average Number of Kernels per Plant: 19.56 kernels
  Percent of Plants with Ears >5 kernels: 28.5%
[24]
  Average Number of Days of Pollen per Plant: 0.96 days
  Average Number of Kernels per Plant: 22.12 kernels
  Percent of Plants with Ears >5 kernels: 21.3%
[25]
  Average Number of Days of Pollen per Plant: 1.45 days
  Average Number of Kernels per Plant: 32.5 kernels
  Percent of Plants with Ears >5 kernels: 25.8%
[26]
  Average Number of Days of Pollen per Plant: 1.33 days
  Average Number of Kernels per Plant: 24.5 kernels
  Percent of Plants with Ears >5 kernels: 24.7%
[27]
  Average Number of Days of Pollen per Plant: 1.28 days
  Average Number of Kernels per Plant: 31 kernels
  Percent of Plants with Ears >5 kernels: 29.9%
[28]
  Average Number of Days of Pollen per Plant: 1.1 days
  Average Number of Kernels per Plant: 40.57 kernels
  Percent of Plants with Ears >5 kernels: 26.2%
[29]
  Average Number of Days of Pollen per Plant: 2.66 days
  Average Number of Kernels per Plant: 45.47 kernels
  Percent of Plants with Ears >5 kernels: 64.9%
[30]
  Average Number of Days of Pollen per Plant: 2.81 days
  Average Number of Kernels per Plant: 72.9 kernels
  Percent of Plants with Ears >5 kernels: 72.2%
[31]
  Average Number of Days of Pollen per Plant: 1.65 days
  Average Number of Kernels per Plant: 31.56 kernels
[32]
  Average Number of Days of Pollen per Plant: 1.67 days
  Average Number of Kernels per Plant: 28.03 kernels
  Percent of Plants with Ears >5 kernels: 37.6%
[33]
  Average Number of Days of Pollen per Plant: 2.63 days
  Average Number of Kernels per Plant: 52.86 kernels
  Percent of Plants with Ears >5 kernels: 49.1%
[34]
  Average Number of Days of Pollen per Plant: 2.51 days
  Average Number of Kernels per Plant: 58.48 kernels
  Percent of Plants with Ears >5 kernels: 50.4%
colchicine-treated groups compared with SCD-QTL1 alone, 17 BC3 populations pooled
  pollen and kernel production: performed overall better in both pollen and kernel production than the SCD-QTL1 alone
